# Results: US7850981B2, “Immuno-adjuvant PDT treatment of metastatic tumors” (QLT, Inc., priority 1999, dated 2010)
# Key:
# [1] = tested on: Lewis Lung Carcinoma (LLC); experiment: In vitro lymphocyte proliferation assay (MTS) with lymph node cells of LLC-bearing mice treated with PDT or PDV; assay type: cell-based, C57B1/6 mice; conditions: mean±standard deviation; lymph nodes 7-10 days after therapy; cultured with LLC antigen; PDV n=7 (ConA responders)
# Text: In order to assess the potential usefulness of various adjuvants and treatment parameters in PDV, an in vitro lymphocyte proliferation assay was designed and employed in a murine tumor model. The assay measures tumour-specific lymphocyte (tumor immunity) responses from animals treated with PDT and PDT combined with adjuvant (PDV). This permits the rapid evaluation of various PDT/adjuvant administration protocols.
# Female C57B1/6 mice are implanted subcutaneously on the shaved right flank with the Lewis Lung Carcinoma (LLC) cell line. When tumours develop to approximately 5 mm diameter animals are treated with PDT or PDV. PDT is performed by delivering 1.0 mg/kg verteporfin i.v. 30 min prior to illumination of 125 J/cm^2 delivered at 70 mW/cm^2 (treatment time=29 min, 4 sec). […] Animals are monitored for general health and re-growth of the tumour following therapy.
# Seven to 10 days following therapy, animals are sacrificed and inguinal, axillary, cervical, and periaortic lymph nodes are aseptically removed. […] Following 3 to 5 days of culture, the degree of proliferation is assessed using 3-(4,5-dimethylthiazol-2-yl)-5-(3-carboxymethoxyphenyl)-2-(4-sulfophenyl)-2H-tetrazolium, inner salt (Owen's reagent, MTS, from PROMEGA™), a variation of the MTT assay which produces a soluble formazan product which absorbs light at 490 nm. […]
# M1 (rhabdomyosarcoma) = experiment: M1 tumor response after PDT (verteporfin 1.0 mg/kg i.v. + light) with or without intratumoral DETOX B-SE; assay type: in vivo, mice
# Protocol: DETOX™ B-SE (Stable Emulsion) (LOT # PD: 071899-575-114) is a 1.0% squalene oil-in-water emulsion containing 145 μg/mL cell wall skeleton (CWS) from Mycobacterium phlei and 25 μg/mL monophosphoryl lipid A (MPL) from Salmonella minnesota R595 [Corixa Inc.]. DETOX™ B-SE was prepared according to the manufacturer's recommendations. Two concentrations were prepared by diluting DETOX™ B-SE in sterile PBS: 1:10 (7.25 μg/mL CWS, 1.25 μg/mL MPL) or 1:2.5 (29.0 μg/mL CWS, 5.0 μg/mL MPL). Aliquots (50 μL) were drawn into a tuberculin syringe with a 27 gauge needle prior to intratumoral injection.
# Mice used in the experiments described below were implanted intradermally with a suspension of 2×10^4 M1 (rhabdomyosarcoma) cells on the right flank. Approximately six to ten days after implantation, the site was shaved and tumor growth measured using vernier calipers. Only mice bearing tumors 4-6 mm in diameter were selected for use.
# Mice treated with PDT or PDV received 1.0 mg/kg of Verteporfin for Injection (VFI) administered intravenously by tail vein injection. Immediately after injection, the mice were placed in a darkened row of an enclosed, ventilated animal rack (condo unit) for 30 minutes. After 30 minutes, each mouse was secured in a metal holder so that the tumor was centered in a 1.0 cm diameter exposure area. The tumor site was exposed to light from an argon pump dye laser for either 14 minutes, to deliver 75 J/cm^2, or 4 minutes and 40 seconds, to deliver 25 J/cm^2. The light doses selected were chosen to deliver either a high PDT dose (75 J/cm^2) or a low PDT dose (25 J/cm 2). The exposure time in seconds was determined by dividing the light dose (J/cm^2) by light Intensity (W/cm^2).
# Immediately following illumination and while still immobilized in the metal holder, mice received a single intratumoral injection of 50 μL of the 1:10 dilution DETOX™ B-SE, designed to deliver the adjuvant to the center of the tumor mass. Mice in treatment Groups 2 and 5 received 50 μL of 1:2.5 dilution following PDT. Mice in treatment Groups 3 and 6 received PDT treatment, but not adjuvant. Mice in Group 7 remained untreated and were monitored for tumor growth only. Mice in treatment Groups 1 and 4 were treated with 50 μL of 1:10 dilution following PDT.
# [2] = Optimal PDT (75 J/cm^2), day 3 post-PDT
# [3] = Optimal PDT (75 J/cm^2), day 7 post-PDT
# [4] = Optimal PDT (75 J/cm^2), day 10 post-PDT
# [5] = Optimal PDT (75 J/cm^2), day 14 post-PDT
# [6] = Optimal PDT (75 J/cm^2), day 17 post-PDT
# [7] = Optimal PDT (75 J/cm^2), day 20 post-PDT
# [8] = Sub-optimal PDT (25 J/cm^2), day 3 post-PDT
# [9] = Sub-optimal PDT (25 J/cm^2), day 7 post-PDT
# [10] = Sub-optimal PDT (25 J/cm^2), day 10 post-PDT
# [11] = Sub-optimal PDT (25 J/cm^2), day 14 post-PDT
# [12] = Sub-optimal PDT (25 J/cm^2), day 17 post-PDT
# [13] = Sub-optimal PDT (25 J/cm^2), day 20 post-PDT
substance,measurement,setting,value
benzoporphyrin derivative monoacid ring A [verteporfin],"lymphocyte proliferation, percent of lymphocytes without antigen",[1],108±11%
same,"Survival (tumour less than 1 cm long, not euthanized)",M1 (rhabdomyosarcoma); [2],100%
same,Tumor-free mice,M1 (rhabdomyosarcoma); [2],100%
same,"Survival (tumour less than 1 cm long, not euthanized)",M1 (rhabdomyosarcoma); [3],100%
same,Tumor-free mice,M1 (rhabdomyosarcoma); [3],100%
same,"Survival (tumour less than 1 cm long, not euthanized)",M1 (rhabdomyosarcoma); [4],100%
same,Tumor-free mice,M1 (rhabdomyosarcoma); [4],100%
same,"Survival (tumour less than 1 cm long, not euthanized)",M1 (rhabdomyosarcoma); [5],100%
same,Tumor-free mice,M1 (rhabdomyosarcoma); [5],90%
same,"Survival (tumour less than 1 cm long, not euthanized)",M1 (rhabdomyosarcoma); [6],100%
same,Tumor-free mice,M1 (rhabdomyosarcoma); [6],90%
same,"Survival (tumour less than 1 cm long, not euthanized)",M1 (rhabdomyosarcoma); [7],90%
same,Tumor-free mice,M1 (rhabdomyosarcoma); [7],90%
same,"Survival (tumour less than 1 cm long, not euthanized)",M1 (rhabdomyosarcoma); [8],100%
same,Tumor-free mice,M1 (rhabdomyosarcoma); [8],100%
same,"Survival (tumour less than 1 cm long, not euthanized)",M1 (rhabdomyosarcoma); [9],100%
same,Tumor-free mice,M1 (rhabdomyosarcoma); [9],90%
same,"Survival (tumour less than 1 cm long, not euthanized)",M1 (rhabdomyosarcoma); [10],100%
same,Tumor-free mice,M1 (rhabdomyosarcoma); [10],80%
same,"Survival (tumour less than 1 cm long, not euthanized)",M1 (rhabdomyosarcoma); [11],100%
same,Tumor-free mice,M1 (rhabdomyosarcoma); [11],50%
same,"Survival (tumour less than 1 cm long, not euthanized)",M1 (rhabdomyosarcoma); [12],80%
same,Tumor-free mice,M1 (rhabdomyosarcoma); [12],70%
same,"Survival (tumour less than 1 cm long, not euthanized)",M1 (rhabdomyosarcoma); [13],70%
same,Tumor-free mice,M1 (rhabdomyosarcoma); [13],70%
same,animals with tumors that were regressing or had regressed completely by Day 20,"M1 (rhabdomyosarcoma); low dose PDT (25 J/cm^2), adjuvant, where given, high dose (1:2.5)",2 out of 10 animals
